# *1 amine or outer side, *2 acyl side, *3 side chain or, on linkers, in order; H or OH if unused. Where a SMILES comes first, the peptide text is derived from it. Side-chain parts run from the residue outwards. [ ]: non-standard residue; d: D form. The star is where a group is joined. γGlu = O=C(O)[C@H](CCC(=O)[*:2])N[*:1]; Palmitoyl = CCCCCCCCCCCCCCCC(=O)*; αMeK = C[C@](N)(CCCCN)C(=O)O; Aib = CC(C)(N)C(=O)O
# Tests used:
# [1] = biological target: T1, human GIP receptor (hGIP R) (Homo sapiens, UniProt P48546); assay: cAMP response (HTRF) of HEK-293 cells stably expressing human GIP receptor; format: cell-based; settings: Table 7; cAMP formation
# T1 construct: expressed in transfected cells
# T1 sequence (P48546 22-466): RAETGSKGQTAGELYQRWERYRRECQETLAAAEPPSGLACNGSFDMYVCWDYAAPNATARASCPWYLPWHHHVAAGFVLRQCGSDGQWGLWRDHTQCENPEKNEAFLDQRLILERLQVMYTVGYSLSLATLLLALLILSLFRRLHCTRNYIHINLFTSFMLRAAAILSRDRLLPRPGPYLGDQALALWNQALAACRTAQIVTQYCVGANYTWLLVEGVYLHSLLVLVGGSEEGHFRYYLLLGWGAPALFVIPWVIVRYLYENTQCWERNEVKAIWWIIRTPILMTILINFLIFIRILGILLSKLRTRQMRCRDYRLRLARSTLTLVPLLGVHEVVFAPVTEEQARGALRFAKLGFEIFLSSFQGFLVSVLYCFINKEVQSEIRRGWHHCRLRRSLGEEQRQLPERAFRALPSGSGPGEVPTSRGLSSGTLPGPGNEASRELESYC
# Experimental: (§1) cAMP content of cells was determined using a kit from Cisbio Corp. (cat. no. 62AM4PEC) based on HTRF (Homogenous Time Resolved Fluorescence). For preparation, cells were split into T175 culture flasks and grown overnight to near confluency in medium (DMEM/10% FBS). Medium was then removed and cells washed with PBS lacking calcium and magnesium, followed by proteinase treatment with accutase (Sigma-Aldrich cat. no. A6964). Detached cells were washed and resuspended in assay buffer (1×HBSS; 20 mM HEPES, 0.1% BSA, 2 mM IBMX) and cellular density determined. They were then diluted to 400000 cells/ml and 25 μl-aliquots dispensed into the wells of 96-well plates. For measurement, 25 μl of test compound in assay buffer was added to the wells, followed by incubation for 30 minutes at room temperature.
# [2] = biological target: T2, human GLP-1 receptor (hGLP-1 R) (Homo sapiens, UniProt P43220); assay: cAMP response (HTRF) of HEK-293 cells stably expressing human GLP-1 receptor; format: cell-based; settings: Table 7; cAMP formation
# T2 construct: expressed in transfected cells
# T2 sequence (P43220 24-463): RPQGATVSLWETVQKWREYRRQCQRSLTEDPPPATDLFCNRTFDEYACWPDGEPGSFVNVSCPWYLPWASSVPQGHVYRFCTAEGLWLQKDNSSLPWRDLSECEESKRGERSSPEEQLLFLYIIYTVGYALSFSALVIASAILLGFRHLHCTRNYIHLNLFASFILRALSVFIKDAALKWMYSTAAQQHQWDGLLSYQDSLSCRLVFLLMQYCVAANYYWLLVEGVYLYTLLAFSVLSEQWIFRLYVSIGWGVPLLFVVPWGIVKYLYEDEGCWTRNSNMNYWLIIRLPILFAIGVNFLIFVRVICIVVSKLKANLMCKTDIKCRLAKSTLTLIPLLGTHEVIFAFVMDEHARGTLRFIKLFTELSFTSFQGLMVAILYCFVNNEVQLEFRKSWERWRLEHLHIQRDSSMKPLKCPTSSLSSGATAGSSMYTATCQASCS
# Experimental: as §1
# [3] = Subchronic effect on body weight in female diet-induced obese (DIO) C57BL/6NCrl mice (method 2); format: in vivo; settings: for Overall weight change: 3-week treatment, mean ± SEM; for decrease of body weight, relative change from baseline: 3 weeks
# Experimental: Female C57BL/6NCrl mice were housed in groups in a specific pathogen-free barrier facility on a 12 h light/dark cycle with free access to water and high-fat diet. After 14 weeks on high-fat diet, mice were stratified to treatment groups (n=8), so that each group had similar mean body weight. An aged-matched group with ad libitum access to standard chow and water was included as standard control group.
# Before the experiment, mice were subcutaneously (s.c.) injected with vehicle solution and weighed for 3 days to acclimate them to the procedures. […] Body weight was recorded daily.
# Statistical analyses were performed with Everstat 6.0 by repeated measures two-way ANOVA and Dunnett's post-hoc analyses (glucose profile) and 1-way-ANOVA, followed by Dunnett's post-hoc test (body weight, body fat). Differences versus vehicle-treated DIO control mice were considered statistically significant at the p<0.05 level.
# Subchronic effects of SEQ ID NO: 11 after subcutaneous treatment on body weight in female diet-induced obese (DIO) C57BL/6NCrl mice (14 weeks of prefeeding with high-rat diet, method 2)
# Female obese C57BL/6NCrl mice were treated for 3 weeks once daily subcutaneously in the late afternoon, prior at the end of the light phase (12 h lights on) with 3 μg/kg and 10 μg/kg SEQ ID NO: 11 or vehicle. Body weight was recorded daily.
# [4] = Chemical stability in solution, 7 days at 25° C., % remaining peptide; format: physicochemical; settings: % remaining peptide after 7 days at 25° C.
# Experimental: The chemical stability is expressed as “% remaining peptide”.
# Solubility and chemical stability of peptidic compounds were assessed as described in Methods.
# [5] = Pharmacokinetic testing in mice, s.c., LC/MS of plasma; format: in vivo; settings: mouse, sc, 1 mg/kg s.c.
# Experimental: Mice were dosed 1 mg/kg subcutaneously (s.c.).
# (§2) Pharmacokinetic profiles were determined as described in Methods.
# [6] = Pharmacokinetic testing in female Göttinger minipigs, s.c., LC/MS of plasma; format: in vivo; settings: minipig, sc, Mini pigs, 0.1 mg/kg s.c.
# Experimental: as §2
# [7] = tested on: non-fasted female diabetic dbdb-mice; assay: Glucose lowering in non-fasted female diabetic dbdb-mice; format: in vivo; settings: 3 μg/kg s.c., at 240 min, kept to 480 min, baseline 20-22 mmol/l
# Excerpt: Female diabetic dbdb-mice of mean non-fasted glucose value of 20-22 mmol/l and a body weight of 42 g+/−0.6 g (SEM) were used. Mice were individually marked and were adapted to housing conditions for at least one week.
# 3-5 days prior to study start mice were assigned to groups and cages (4 mice per cage, 8 per group, control group 16) according to their non-fasted glucose values to ensure even distribution of lower and higher values between groups (stratification). On the study day, mice were weighed and dosed (t=0). Immediately prior to compound administration feed was removed while water remained available, and a first blood sample at a tail incision was drawn (baseline). Further blood samples were drawn at the tail incision at 30, 60, 90, 120, 240, 360, and 480 min.
# Statistical analyses are performed with Everstat Version 6.0 based on SAS by 2-way-ANOVA on repeated measures, followed by Dunnett's post-hoc test against vehicle-control. Differences are considered statistically significant at the p<0.05 level.
smiles,measurement,setting,value
"CCCCCCCCCCCCCCCC(=O)N[C@@H](CCC(=O)NCCCC[C@H](NC(=O)[C@H](CCC(N)=O)NC(=O)[C@@H](NC(=O)[C@H](CO)NC(=O)[C@H](CC(C)C)NC(=O)[C@H](CC(=O)O)NC(=O)[C@H](CO)NC(=O)[C@@H](NC(=O)[C@H](Cc1ccccc1)NC(=O)[C@@H](NC(=O)CNC(=O)[C@H](CCC(=O)O)NC(=O)C(C)(C)NC(=O)[C@@H](N)Cc1ccc(O)cc1)[C@@H](C)O)[C@@H](C)O)[C@@H](C)CC)C(=O)N[C@@H](CCC(=O)O)C(=O)N[C@@H](CCC(=O)O)C(=O)N[C@@H](CCCNC(=N)N)C(=O)N[C@@H](C)C(=O)N[C@@H](C)C(=O)N[C@@](C)(CCCCN)C(=O)N[C@@H](CCC(=O)O)C(=O)N[C@@H](Cc1ccccc1)C(=O)N[C@H](C(=O)N[C@@H](CCC(=O)O)C(=O)N[C@@H](Cc1c[nH]c2ccccc12)C(=O)N[C@@H](CC(C)C)C(=O)N[C@@H](CCCCN)C(=O)N[C@@H](CC(N)=O)C(=O)N[C@H](C(=O)NCC(=O)N1CCC[C@H]1C(=O)N[C@@H](CO)C(=O)N[C@@H](CO)C(=O)NCC(=O)N[C@@H](C)C(=O)N1CCC[C@H]1C(=O)N1CCC[C@H]1C(=O)N1CCC[C@H]1C(=O)N[C@@H](CO)C(N)=O)[C@@H](C)O)[C@@H](C)CC)C(=O)O [SEQ ID NO: 11, Y-Aib-E-G-T-F-T-S-D-L-S-I-Q-K(γE-x53)-E-E-R-A-A-(S)MeLys-E-F-I-E-W-L-K-N-T-G-P-S-S-G-A-P-P-P-S-NH2] (H-Y[Aib]EGTFTSDLSIQK([γGlu-Palmitoyl])EERAA[αMeK]EFIEWLKNTGPSSGAPPPS-NH2)",EC50,[1],7 pM
same,EC50,[2],5.1 pM
same,Overall weight change,[3]; 3 μg/kg s.c. once daily,-3.2 ± 0.6 g
same,"decrease of body weight, relative change from baseline",[3]; 3 μg/kg s.c. once daily,7.6%
same,Overall weight change,[3]; 10 μg/kg s.c. once daily,-6.8 ± 0.7 g
same,"decrease of body weight, relative change from baseline",[3]; 10 μg/kg s.c. once daily,17.4%
same,Stability (pH 4.5),[4]; pH 4.5,100.0%
same,Stability (pH 7.4),[4]; pH 7.4,99.0%
same,Cmax,[5],5940 ng/mL
same,half-life,[5],4.3 h
same,Cmax,[6],302 ng/mL
same,half-life,[6],12.6 h
same,"maximal effect, glucose reduction",[7],~11 mmol/L

# Source: US9745360B2 (Sanofi, priority 2012, dated 2017)
